Experimental data as given in patent US8940770B2, “Nitropyridinyl ethyleneimine compound, the pharmaceutical composition containing it, the preparation method and use thereof” (Beijing Yiling Bioengineering Co., Ltd, priority 2008, dated 2015).
Read-outs that look alike come from different tables or passages of the source.

Assays:
[1] = tested on: human non-small cell lung cancer cell line A549; assay: SRB cell viability assay, wild-type A549, normoxic and hypoxic drug treatment; format: cell-based; details: for IC50: Homo sapiens, 4 h drug treatment, then 4 days normoxic culture, SRB, mean ± SD; for HCR O2/N2 (WT): wild-type A549, HCR = IC50 in normoxia/IC50 in hypoxia
Procedure: (§1) Tumor cell strain: human non-small cell lung cancer cell line A549.
(§2) Reagent system: SRB, transfection kit
(§3) The cell strains/the cypor transfected cell strains were subject to normoxic and hypoxic cultivations respectively. Then, the cell vitality was analyzed by SRB assay and IC50 values were calculated. At last, the ratio of IC50 values in normoxia and in hypoxia (hypoxic cytotoxicity ratio, HCR) was calculated.
(§4) Both the human non-small cell lung cancer cell line A549 and the cypor transfected cell strains were cultivated in F12 cultivation medium containing 10% fetal bovine serum at 37° C. and in 5% CO2
(§5) The concentration gradient for the drug was set as 10^−3, 10^−4, 10^−5, 10^−6, and 10^−7 mol/L.
(§6) The crystallized powder of the active ingredient was dissolved in DMSO and formulated into a stock solution having a concentration which was 100 times of the maximal administrated concentration of the drug. The administrated concentrations of the drug could be prepared by directly diluting the stock solution with the corresponding serum-free cultivation medium.
(§7) the stock solution was stored at −80° C. in a refrigerator and the solutions of the drug to be administrated were prepared immediately before use.
(§8) The cell in the exponential growth phase was adjusted to a cell density of 1.0×10^5/ml and seeded into a 96-well plate at 100 μl per well. The drug was added under the normoxic and hypoxic condition respectively, according to the experimental grouping, and each of treatments using the drug lasted for 4 h.
(§9) After treatment using the drug was completed, the treated cells were normally cultivated under a normoxic condition for 4 days and then the cell survival rate was assayed by SRB. IC50 was calculated according to the equation of Lg IC50=Σ(Xi+Xi+1)(Pi+1−Pi)/2. Hypoxia cytotoxicity ratio (HCR) was obtained through dividing IC50 value in normoxia by IC50 value in hypoxia. The greater the HCR value is, the stronger the hypoxic selectivity of the drug will be.
(§10) All of the data were statistically analyzed using the software SPSS 11.5, the results were expressed as a mean±standard deviation ( X±SD), the inter-group difference was tested with the program One-Way ANOVA, P<0.05 means a statistically significant difference.

[2] = tested on: A549 transfected with human cytochrome P450 reducease (CYPOR); assay: cells; format: cell-based; details: for IC50: Homo sapiens
Procedure: as §1, §2, §3, §4, §5, §6, §7, §8, §9, §10

[3] = wild-type A549, hypoxia (N2), read-out: IC50 N2 (WT)
[4] = wild-type A549, normoxia (O2), read-out: IC50 O2 (WT)
[5] = A549, read-out: IC50 N2 (CYPOR)
[6] = A549, read-out: IC50 O2 (CYPOR)

## NC(=O)c1ccnc(N2CC2)c1[N+](=O)[O-] [Compound II, 2-(1-ethyleneimine)-4-carbamoyl-3-nitropyridine]
[1]; [3]
  IC50: 15.5 ± 2.67 µM
[1]; [4]
  IC50: 198 ± 5.04 µM
[1]
  HCR O2/N2 (WT): 12.8 ± 2.87
other
  melting point: 170 °C (dec.)
[2]
  HCR O2/N2 (CYPOR): 52.5 ± 3.51
[2]; [5]
  IC50: 2.7 ± 0.58 µM
[2]; [6]
  IC50: 142 ± 10.1 µM

## NC(=O)c1cnc(N2CC2)c([N+](=O)[O-])c1 [Compound III, 2-(1-ethyleneimine)-5-carbamoyl-3-nitropyridine]
[1]; [3]
  IC50: 13.5 ± 3.2 µM
[1]; [4]
  IC50: 257 ± 4.83 µM
[1]
  HCR O2/N2 (WT): 19.0 ± 3.91
other
  melting point: 150 °C (dec.)
[2]
  HCR O2/N2 (CYPOR): 62.0 ± 8.32
[2]; [5]
  IC50: 2.3 ± 0.27 µM
[2]; [6]
  IC50: 143 ± 9.96 µM

## NC(=O)c1cc([N+](=O)[O-])cnc1N1CC1 [Compound IV, 2-(1-ethyleneimine)-3-carbamoyl-5-nitropyridine]
[1]; [3]
  IC50: 56.6 ± 7.17 µM
[1]; [4]
  IC50: 317.2 ± 2.79 µM
[1]
  HCR O2/N2 (WT): 5.6 ± 2.73
other
  melting point: 160 °C (dec.)
[2]
  HCR O2/N2 (CYPOR): 21.3 ± 4.56
[2]; [5]
  IC50: 9.3 ± 3.2 µM
[2]; [6]
  IC50: 198 ± 24.9 µM

## NC(=O)c1ccc([N+](=O)[O-])c(N2CC2)n1 [Compound V, 2-(1-ethyleneimine)-6-carbamoyl-3-nitropyridine]
[1]; [3]
  IC50: 9.4 ± 2.65 µM
[1]; [4]
  IC50: 79.3 ± 4.77 µM
[1]
  HCR O2/N2 (WT): 8.4 ± 3.56
other
  melting point: 170 °C (dec.)
[2]
  HCR O2/N2 (CYPOR): 35.9 ± 9.15
[2]; [5]
  IC50: 1.7 ± 0.38 µM
[2]; [6]
  IC50: 61 ± 7.11 µM

## NC(=O)c1cc(N2CC2)ncc1[N+](=O)[O-] [Compound VI, 2-(1-ethyleneimine)-4-carbamoyl-5-nitropyridine]
[1]; [3]
  IC50: 5.5 ± 1.6 µM
[1]; [4]
  IC50: 137 ± 7.34 µM
[1]
  HCR O2/N2 (WT): 25.0 ± 5.71
other
  melting point: 170 °C (dec.)
[2]
  HCR O2/N2 (CYPOR): 108.7 ± 8.88
[2]; [5]
  IC50: 1.1 ± 0.16 µM
[2]; [6]
  IC50: 120 ± 6.48 µM
